Test results taken from PMC3237458, “PEGylation Potentiates the Effectiveness of an Antagonistic Peptide That Targets the EphB4 Receptor with Nanomolar Affinity” (PLoS ONE, 2011).
Square brackets hold non-standard residues; d marks the D form. Peptide text beside a SMILES is read from it. * marks the point of attachment. Biotin = O=C1N[C@H]2[C@H](CS[C@H]2CCCCC(=O)*)N1; Ahx = NCCCCCC(=O)O

Columns and labels:
[1] = target: T1, EphB4-ephrin-B2 binding (Mus musculus, UniProt P54761); assay: ELISA inhibition of EphB4-ephrin-B2 binding (ephrin-B2 AP on immobilized EphB4 Fc); settings: incubated in conditioned medium for 4 hours before ELISA; Figure 1C
T1 construct: EphB4 Fc, a soluble dimeric form of the EphB4 extracellular domain fused to Fc; purchased R&D Systems, Minneapolis, MN (EphB4 Fc); ephrin-B2 AP made in house from a GeneHunter plasmid; host or cells: HEK 293T cells for ephrin-B2 AP
T1 sequence (P54761 16-539 limits assumed): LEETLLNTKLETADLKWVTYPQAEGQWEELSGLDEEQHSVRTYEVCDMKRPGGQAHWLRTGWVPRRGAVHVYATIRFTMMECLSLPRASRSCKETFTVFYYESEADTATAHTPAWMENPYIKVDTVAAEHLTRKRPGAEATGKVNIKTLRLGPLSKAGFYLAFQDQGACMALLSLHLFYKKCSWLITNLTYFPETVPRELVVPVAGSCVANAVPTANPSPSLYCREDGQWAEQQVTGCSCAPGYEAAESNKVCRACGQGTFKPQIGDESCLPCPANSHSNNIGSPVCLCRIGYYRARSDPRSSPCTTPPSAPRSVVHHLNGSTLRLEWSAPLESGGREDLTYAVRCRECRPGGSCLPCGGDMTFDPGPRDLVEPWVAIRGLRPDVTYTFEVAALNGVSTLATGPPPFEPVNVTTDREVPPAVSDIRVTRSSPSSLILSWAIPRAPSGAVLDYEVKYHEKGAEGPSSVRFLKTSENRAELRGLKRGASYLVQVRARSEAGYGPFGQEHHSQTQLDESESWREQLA
Experimental: Alkaline phosphatase (AP) fusion proteins were produced by transiently transfecting the mouse EphB4 AP [70] or mouse ephrin-B2 AP plasmids (GeneHunter, Nashville, TN) in HEK 293T cells and growing the cells in serum-free Opti-MEM medium for 2–4 days. If necessary, the culture medium containing the secreted AP protein was concentrated by centrifugation in Amicon 30,000 MW cutoff filters (Millipore, Inc., Temecula, CA). EphB4 and ephrin-B2 AP concentrations were calculated from alkaline phosphatase activity.
EphB4 Fc (1 µg/ml in TBST) was immobilized in protein A-coated plates and incubated for 3 hours with 0.02 nM ephrin-B2 AP in culture medium diluted in TBST in the presence of different concentrations of TNYL-RAW, TNYL-RAW-Fc, TNYL-RAW-streptavidin and PEG-TNYL-RAW. Bound ephrin-B2 AP was quantified by adding pNPP as the substrate and measuring the absorbance at 405 nm. Alkaline phosphatase activity from wells where human Fc (R&D Systems, Minneapolis, MN) was added instead of EphB4 Fc was subtracted as the background. The binding curves were analyzed using non linear regression and the program Prism (GraphPad Software Inc.).

[2] = target: T2, EphB4 (Mus musculus, UniProt P54761); assay: Ephrin-B2-induced EphB4 tyrosine phosphorylation in B16 melanoma cells (immunoprecipitation/immunoblot); assay type: cell-based; settings: 24 hours pretreatment, Figure 4A
T2 construct: tyrosine phosphorylation of endogenous EphB4 expressed in B16 melanoma cells; host or cells: B16-F10-luc-G5 melanoma cells
T2 sequence (P54761 16-987): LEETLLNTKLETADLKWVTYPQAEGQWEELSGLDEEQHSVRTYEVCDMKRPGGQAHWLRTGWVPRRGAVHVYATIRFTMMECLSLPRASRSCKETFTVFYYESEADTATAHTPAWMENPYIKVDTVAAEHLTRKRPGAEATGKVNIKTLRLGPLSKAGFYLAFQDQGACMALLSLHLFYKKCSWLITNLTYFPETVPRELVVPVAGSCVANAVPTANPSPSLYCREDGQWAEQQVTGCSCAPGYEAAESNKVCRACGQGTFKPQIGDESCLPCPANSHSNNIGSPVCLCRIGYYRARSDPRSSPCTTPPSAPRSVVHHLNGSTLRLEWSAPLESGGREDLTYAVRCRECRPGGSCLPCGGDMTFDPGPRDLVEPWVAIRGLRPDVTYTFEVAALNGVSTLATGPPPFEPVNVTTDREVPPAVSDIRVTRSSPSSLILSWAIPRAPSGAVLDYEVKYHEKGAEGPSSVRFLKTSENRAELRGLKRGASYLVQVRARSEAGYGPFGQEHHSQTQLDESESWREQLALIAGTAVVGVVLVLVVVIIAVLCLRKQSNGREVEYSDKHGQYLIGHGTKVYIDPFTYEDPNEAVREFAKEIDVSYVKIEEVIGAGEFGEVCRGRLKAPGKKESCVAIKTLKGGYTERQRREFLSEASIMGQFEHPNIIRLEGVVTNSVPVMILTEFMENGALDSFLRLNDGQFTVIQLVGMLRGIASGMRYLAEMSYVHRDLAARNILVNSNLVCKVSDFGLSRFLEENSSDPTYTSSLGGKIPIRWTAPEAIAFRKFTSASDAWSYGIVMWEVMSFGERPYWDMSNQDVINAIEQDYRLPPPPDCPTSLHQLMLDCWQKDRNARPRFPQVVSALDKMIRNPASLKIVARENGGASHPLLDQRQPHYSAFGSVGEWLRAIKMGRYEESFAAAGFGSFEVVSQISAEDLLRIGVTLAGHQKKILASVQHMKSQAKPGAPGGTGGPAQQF
Experimental: B16-F10-luc-G5 melanoma cells, which endogenously express EphB4, were serum starved for 1–3 hours in Eagle's MEM/EBSS containing 0.5% FBS and incubated for 15 min or 24 hours with different concentrations of PEG-TNYL-RAW. The cells were then stimulated for 20 min with 1.5 µg/ml ephrin-B2 Fc, which had been preclustered with a 3 fold excess of an anti-Fc antibody, in the continued presence of the peptide. HUVECs, EMCs or a 1∶1 mixture of the two cell types were plated for 20 hours in complete medium in the presence of PEG or PEG-TNYL-RAW. Medium 200 was used for HUVECs and HUVECs and EMCs co-cultures, DMEM was used for EMCs. The cells were lysed in modified RIPA buffer (1% Triton X-100, 1% Na deoxycholate; 0.1% SDS; 20 mM Tris; 150 mM NaCl; 1 mM EDTA) containing 10 µM NaF, 1 µM sodium pervanadate and protease inhibitors. Protein concentrations were measured using the BCA protein assay kit (Pierce Biotechnology, Rockford, IL). For immunoprecipitations, cell lysates were incubated with 20 µg of an anti-EphB4 antibody made to a GST fusion protein of the EphB4 SAM domain and carboxy-terminal tail immobilized on GammaBind Sepharose beads (GE Healthcare Life Sciences). […]

Inhibitory activity on EphB4 phosphorylation after 24 hours of incubation with cells [2]: ineffective
SMILES: CC[C@H](C)[C@H](NC(=O)[C@@H]1CCCN1C(=O)CNC(=O)[C@H](CC(N)=O)NC(=O)[C@@H]1CCCN1C(=O)[C@H](CO)NC(=O)[C@H](Cc1ccccc1)NC(=O)[C@H](CC(C)C)NC(=O)[C@H](Cc1ccc(O)cc1)NC(=O)[C@H](CC(N)=O)NC(=O)[C@@H](N)[C@@H](C)O)C(=O)N[C@@H](C)C(=O)N[C@@H](CCCNC(=N)N)C(=O)N[C@@H](C)C(=O)N[C@@H](Cc1c[nH]c2ccccc12)C(=O)NCCCCCC(=O)N[C@@H](CCCCNC(=O)CCCC[C@@H]1SC[C@@H]2NC(=O)N[C@@H]21)C(N)=O [TNYL-RAW] (H-TNYLFSPNGPIARAW[Ahx]K(Biotin)-NH2; N-terminus and C-terminus assumed)
Ability to inhibit ephrin-B2-EphB4 interaction after incubation in PC3 cell conditioned medium [1]: abolished the ability of TNYL-RAW to inhibit ephrin-B2-EphB4 interaction
